# Assay results reported in publication PMC9854539, “QSAR Studies, Molecular Docking, Molecular Dynamics, Synthesis, and Biological Evaluation of Novel Quinolinone-Based Thiosemicarbazones against Mycobacterium tuberculosis” (Antibiotics, 2022).
# Key:
# Assay type in all cases: cell-based, Mycobacterium tuberculosis
# M. tuberculosis Haarlem = assay: Spot culture growth inhibition assay (SPOTi), MIC; conditions: multiresistant to isoniazid and rifampicin
# M. tuberculosis LAM 9 = assay: Spot culture growth inhibition assay (SPOTi), MIC; conditions: multiresistant to isoniazid and rifampicin
# [1] = system: M. tuberculosis ATCC 35838; assay: Spot culture growth inhibition assay (SPOTi), MIC; conditions: rifampicin resistant
# [2] = system: M. tuberculosis ATCC 35822; assay: Spot culture growth inhibition assay (SPOTi), MIC; conditions: isoniazid resistant
# M. tuberculosis Beijing = assay: Spot culture growth inhibition assay (SPOTi), MIC; conditions: multiresistant to isoniazid and rifampicin
# M. tuberculosis Orphan = assay: Spot culture growth inhibition assay (SPOTi), MIC; conditions: Mycobacterium tuberculosis; multiresistant to isoniazid and rifampicin
# [3] = system: multiresistant M. tuberculosis; conditions: summary of Table 9
# [4] = Mycobacterium tuberculosis, LAM9
# [5] = Mycobacterium tuberculosis, ATCC35838
# [6] = Mycobacterium tuberculosis, ATCC35822
SMILES,MIC (M. tuberculosis Haarlem; Mycobacterium tuberculosis),MIC (M. tuberculosis LAM 9; [4]),"MIC [1, 5]","MIC [2, 6]",MIC (M. tuberculosis Beijing; Mycobacterium tuberculosis),MIC (M. tuberculosis Orphan),MIC (M. tuberculosis Haarlem),MIC (M. tuberculosis LAM 9),MIC against the different families of multiresistant M. tuberculosis [3],MIC [1],MIC [2],MIC (M. tuberculosis Beijing)
"CC(/C=C/c1cc2cc(C)ccc2[nH]c1=O)=N\NC(N)=S [Compound 11b, (E)-2-((E)-4-(6-Methyl-2-oxo-1,2-dihydroquinolin-3-yl)but-3-en-2-ylidene)hydrazine-1-carbothioamide]",3.33 µM,16.6 µM,3.33 µM,3.33 µM,1.66 µM,33.3 µM,–,–,–,–,–,–
"CC(/C=C/c1cc2cccc(C)c2[nH]c1=O)=N\NC(N)=S [Compound 11c, (E)-2-((E)-4-(8-Methyl-2-oxo-1,2-dihydroquinolin-3-yl)but-3-en-2-ylidene)hydrazine-1-carbothioamide]",33.3 µM,3.29 µM,1.66 µM,0.33 µM,0.33 µM,66.6 µM,–,–,–,–,–,–
"CC(/C=C/c1cc2ccc(Cl)cc2[nH]c1=O)=N\NC(N)=S [Compound 11d, (E)-2-((E)-4-(7-Chloro-2-oxo-1,2-dihydroquinolin-3-yl)but-3-en-2-ylidene)hydrazine-1-carbothioamide]",1.56 µM,3.12 µM,3.33 µM,6.23 µM,0.33 µM,6.23 µM,–,–,–,–,–,–
"CC(/C=C/c1cc2cc(Br)ccc2[nH]c1=O)=N\NC(N)=S [Compound 11e, (E)-2-((E)-4-(6-Bromo-2-oxo-1,2-dihydroquinolin-3-yl)but-3-en-2-ylidene)hydrazine-1-carbothioamide]",27.4 µM,2.74 µM,2.73 µM,1.37 µM,0.27 µM,27.4 µM,–,–,–,–,–,–
"CC1COc2c(N3CCN(C)CC3)c(F)cc3c(=O)c(C(=O)O)cn1c23 (stereo not drawn) [Oxafloxacin, reference compound]",–,–,–,–,–,–,2.76 µM,2.76 µM,2.76 µM,2.76 µM,2.76 µM,2.76 µM
